Measured values as given in ChEMBL document CHEMBL1201862, “PubChem BioAssay data set” (2004).
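Five concentrations, 48 hours, 96-well plates. At the GI50, growth is halved.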 Active and inactive are the calls of the source. Rule as the data show it: active = GI50 up to about 1.1 µM and inactive = higher.

Legend:
Assay in all cases: NCI anticancer screen, dose series, 48 h
A498 = system: A498
A549 = system: A549
ACHN = system: ACHN
BT-549 = system: BT-549
CAKI-1 = system: CAKI-1
EKVX = system: EKVX
HCC 2998 = system: HCC 2998
HCT-15 = system: HCT-15
HL-60 = system: HL-60
HOP-62 = system: HOP-62
HOP-92 = system: HOP-92
KM12 = system: KM12
M14 = system: M14
MDA-MB-231 = system: MDA-MB-231
MDA-MB-435 = system: MDA-MB-435
MOLT-4 = system: MOLT-4
NCI-H226 = system: NCI-H226
NCI-H23 = system: NCI-H23
NCI-H460 = system: NCI-H460
NCI/ADR-RES = system: NCI/ADR-RES
OVCAR-3 = system: OVCAR-3
OVCAR-4 = system: OVCAR-4
OVCAR-5 = system: OVCAR-5
OVCAR-8 = system: OVCAR-8
PC-3 = system: PC-3
RPMI-8226 = system: RPMI-8226
RXF 393 = system: RXF 393
SF-268 = system: SF-268
SF-295 = system: SF-295
SF-539 = system: SF-539
SK-MEL-28 = system: SK-MEL-28
SK-MEL-2 = system: SK-MEL-2
SK-OV-3 = system: SK-OV-3
SN12C = system: SN12C
SNB-19 = system: SNB-19
SNB-75 = system: SNB-75
SW-620 = system: SW-620
TK-10 = system: TK-10
U-251 = system: U-251
UACC-257 = system: UACC-257
UACC-62 = system: UACC-62
UO-31 = system: UO-31
786-0 = system: 786-0
CCRF-CEM = system: CCRF-CEM
COLO 205 = system: COLO 205
DU-145 = system: DU-145
HCT-116 = system: HCT-116
HT-29 = system: HT-29
IGROV-1 = system: IGROV-1
K562 = system: K562
MCF7 = system: MCF7
MDA-N = system: MDA-N
Malme-3M = system: Malme-3M
NCI-H522 = system: NCI-H522
SK-MEL-5 = system: SK-MEL-5
SR = system: SR

CN(C)CCCn1c(-c2cc(C(C)(C)C)c(O)c(C(C)(C)C)c2)cs/c1=N\c1ccccc1
GI50 (A498): 1.94 µM (inactive) | GI50 (A549): 1.77 µM (inactive) | GI50 (ACHN): 2.98 µM (inactive) | GI50 (BT-549): 3.13 µM (inactive) | GI50 (CAKI-1): 17.8 µM (inactive) | GI50 (EKVX): 2.16 µM (inactive) | GI50 (HCC 2998): 1.85 µM (inactive) | GI50 (HCT-15): 3.24 µM | GI50 (HL-60): 0.1 µM (active) | GI50 (HOP-62): 1.89 µM (inactive) | GI50 (HOP-92): 2.26 µM (inactive) | GI50 (KM12): 1.91 µM (inactive) | GI50 (M14): 1.72 µM (inactive) | GI50 (MDA-MB-231): 2.34 µM (inactive) | GI50 (MDA-MB-435): 2.34 µM (inactive) | GI50 (MOLT-4): 0.131 µM (active) | GI50 (NCI-H226): 1.98 µM (inactive) | GI50 (NCI-H23): 1.68 µM (inactive) | GI50 (NCI-H460): 2.35 µM (inactive) | GI50 (NCI/ADR-RES): 1.79 µM (inactive) | GI50 (OVCAR-3): 1.61 µM (inactive) | GI50 (OVCAR-4): 2.09 µM (inactive) | GI50 (OVCAR-5): 2.23 µM (inactive) | GI50 (OVCAR-8): 1.97 µM (inactive) | GI50 (PC-3): 1.87 µM (inactive) | GI50 (RPMI-8226): 1.4 µM (inactive) | GI50 (RXF 393): 2.17 µM (inactive) | GI50 (SF-268): 1.85 µM (inactive) | GI50 (SF-295): 1.79 µM (inactive) | GI50 (SF-539): 1.75 µM (inactive) | GI50 (SK-MEL-28): 2.39 µM (inactive) | GI50 (SK-MEL-2): 3.06 µM (inactive) | GI50 (SK-OV-3): 1.96 µM (inactive) | GI50 (SN12C): 2.08 µM (inactive) | GI50 (SNB-19): 2.14 µM (inactive) | GI50 (SNB-75): 3.88 µM (inactive) | GI50 (SW-620): 76.6 µM (inactive) | GI50 (TK-10): 1.95 µM (inactive) | GI50 (U-251): 2.93 µM (inactive) | GI50 (UACC-257): 1.47 µM (inactive) | GI50 (UACC-62): 2.3 µM (inactive) | GI50 (UO-31): 1.97 µM (inactive)

ClCCCC1COc2ccccc2O1 (configuration not stated)
GI50 (786-0): > 100 µM (inactive) | GI50 (A549): > 100 µM (inactive) | GI50 (ACHN): > 100 µM (inactive) | GI50 (BT-549): 23.1 µM (inactive) | GI50 (CAKI-1): > 100 µM (inactive) | GI50 (CCRF-CEM): > 100 µM (inactive) | GI50 (COLO 205): > 100 µM (inactive) | GI50 (DU-145): > 100 µM (inactive) | GI50 (EKVX): > 100 µM (inactive) | GI50 (HCC 2998): > 100 µM (inactive) | GI50 (HCT-116): 45.7 µM (inactive) | GI50 (HCT-15): > 100 µM | GI50 (HL-60): > 100 µM (inactive) | GI50 (HOP-62): > 100 µM (inactive) | GI50 (HOP-92): 43.6 µM (inactive) | GI50 (HT-29): > 100 µM (inactive) | GI50 (IGROV-1): 46.3 µM (inactive) | GI50 (K562): > 100 µM (inactive) | GI50 (M14): > 100 µM (inactive) | GI50 (MCF7): > 100 µM (inactive) | GI50 (MDA-N): > 100 µM (inactive) | GI50 (MOLT-4): > 100 µM (inactive) | GI50 (Malme-3M): > 100 µM (inactive) | GI50 (NCI-H226): > 100 µM (inactive) | GI50 (NCI-H23): > 10 µM (inactive) | GI50 (NCI-H460): > 100 µM (inactive) | GI50 (NCI-H522): > 100 µM (inactive) | GI50 (NCI/ADR-RES): > 100 µM (inactive) | GI50 (OVCAR-3): > 100 µM (inactive) | GI50 (OVCAR-4): > 100 µM (inactive) | GI50 (OVCAR-5): 55.8 µM (inactive) | GI50 (OVCAR-8): > 100 µM (inactive) | GI50 (PC-3): > 100 µM (inactive) | GI50 (RXF 393): > 100 µM (inactive) | GI50 (SF-268): 96.6 µM (inactive) | GI50 (SF-295): > 100 µM (inactive) | GI50 (SF-539): > 100 µM (inactive) | GI50 (SK-MEL-28): > 100 µM (inactive) | GI50 (SK-MEL-5): > 100 µM (inactive) | GI50 (SK-OV-3): 8.81 µM (inactive) | GI50 (SN12C): > 100 µM (inactive) | GI50 (SNB-19): > 100 µM (inactive) | GI50 (SNB-75): > 100 µM (inactive) | GI50 (SR): > 100 µM (inactive) | GI50 (SW-620): > 100 µM (inactive) | GI50 (TK-10): > 100 µM (inactive) | GI50 (U-251): > 100 µM (inactive) | GI50 (UACC-257): > 100 µM (inactive) | GI50 (UACC-62): 98.6 µM (inactive) | GI50 (UO-31): > 100 µM (inactive)
